# Tests used:
# [1] = Storage stability: impurity profile
# [2] = Storage stability: water content by KF Autotitrator; assay type: physicochemical
# Experimental: Water content was measured using about 0.2 g sample in methanol by KF Autotitrator.
# [3] = At 6 months, storage at 2° C. to 8° C.
# [4] = Initial, stability study at 2° C. to 8° C.
Compound,"Impurity A [1, 3] [%]","Impurity B [1, 3] [%]","Impurity C [1, 3] [%]","Impurity A [1, 4] [%]","Impurity B [1, 4] [%]","Impurity C [1, 4] [%]",Stability on storage (in words) ([1]; on storage),Water absorption on storage (in words) ([2]; 2° C. to 8° C. for 6 months),"Water content [2, 3] [% w/w]","Water content [2, 4] [% w/w]",Rise in impurities on storage (in words) ([1]; 2° C. to 8° C. for 6 months)
COCCCOc1ccnc(C[S@@+]([O-])c2nc3ccccc3[nH]2)c1C [dexrabeprazole sodium],0.06,1.25,0.33,0.02,0.87,0.22,not stable on storage,absorbed more water than dexrabeprazole magnesium,13.58,6.84,–
dexrabeprazole magnesium hydrate,0.02,0.07,0.09,0.02,0.07,0.09,–,–,10.46,10.27,does not show significant rise in impurities

# Reference: patent publication US20150080579A1, “Salts and Polymorphs of Dexrabeprazole” (Cipla Limited, priority 2010, published 2015)
